{"source": "patent US8445207B2", "about": "“Genes based on thalidomide, valproic acid and methotrexate treatment for screening of drug inducing teratogenicity and screening method using thereof” (priority 2009, dated 2013)", "key": {"[1]": {"test_system": "JEG-3 (human placental choriocarcinoma cell line)", "experiment": "Oligo microarray gene expression in drug-treated JEG-3 (Cy5 treated / Cy3 control)", "type": "cell-based", "procedure": "Thalidomide, valproic acid, and methotrexate were treated to human placental choriocarcinoma cell line at the concentrations determined above (Inhibition concentration: the concentration that can kill approximately 30% of the total cells, that is the concentration of 70% viability, IC30). mRNA was extracted from the drug treated cell line, followed by synthesis of cDNA which was labeled with Cy5. The non-treated control was labeled with Cy3. The fluorescence labeled cDNA was hybridized with 41K (thalidomide), 44K (valproic acid, methotrexate) human whole genome oligomicroarray chips (Agilent, USA), followed by fluorescent image scanning to analyze gene expression patterns (see FIG. 4). Volcano Plot of each substance was also attached. Y axis indicates probability (generally converted by −log 10). X axis indicates differential expression, which is presented by log-ratio.\nTotal RNA was separated from the treated cell by using trizol reagent (Invitrogen Life Technologies, USA) according to the manufacture's instructions, followed by purification using RNeasy mini kit (Qiagen, USA). Genomic DNA was eliminated during RNA purification using RNase-free DNase set (Qiagen, USA).\n30 μg of the total RNA obtained above and 2 μg (1 μg/μl) of oligo (dT) primer were mixed, followed by reaction at 65° C. for 10 minutes. Annealing was performed in ice right after the reaction. Reagents were prepared as shown in Table 1 for reverse transcription of the annealed RNA.\nThe total RNA separated from the control group JEG-3 cells was labeled with Cy3-dUTP (green) and the total RNA separated from the experiment group JEG-3 cells treated with thalidomide, valproic acid and methotrexate was labeled with Cy5-dUTP (red). At this time, the two samples were mixed and purified by Microcon YM-30 column (Millipore, USA).\nHybridization and washing were performed by the manufacturer's (GenoCheck, Korea) instructions. Particularly, hybridization was performed in a 62° C. oven for 12 hours. As a DNA microarray chip, 44 k whole human genome oligo microarray (Agilent, USA) was used. After washing (2 minutes with 2×SSC/0.1% SDS, three minutes with 1×SSC, 2 minutes with 0.2×SSC), the slide was dried by centrifugation at 800 rpm for 3 minutes.\nHybridization image on the slide was scanned with Genepix 4000B (Axon Instruments, USA). Fluorescence image of the chip on which non-hybridized genes had been washed out was obtained by using laser fluorescence scanner. Green fluorescence image indicates the activity of gene specifically expressed in the control group and red fluorescence image indicates the activity of gene specifically expressed in the experimental group. […] Scanned image was analyzed by using GenePix 4.1 software (Axon Instruments, USA) to calculate gene expression rate."}, "[2]": {"test_system": "JEG-3 (human placental choriocarcinoma cell line)", "experiment": "Cytotoxicity test (MTT assay) in JEG-3"}, "[3]": {"conditions": "out of 21797 (thalidomide), 21921 (valproic acid), 24006 (methotrexate) genes"}, "[4]": {"conditions": "treated at IC30, up-regulated gene, (k) common gene which has no function"}}, "data": [{"smiles": "CN(Cc1cnc2nc(N)nc(N)c2n1)c1ccc(C(=O)N[C@@H](CCC(=O)O)C(=O)O)cc1", "note": "[MTX, methotrexate]", "values": [{"measurement": "Ratio of intermediate value, KAL1", "setting": "[1]; Genbank NM_000216, drug at IC30", "value": 0.43}, {"measurement": "Ratio of intermediate value, PMP22", "setting": "[1]; Genbank NM_000304, drug at IC30", "value": 0.43}, {"measurement": "Ratio of intermediate value, ATR", "setting": "[1]; Genbank NM_001184, drug at IC30", "value": 0.41}, {"measurement": "Ratio of intermediate value, PARP1", "setting": "[1]; Genbank NM_001618, drug at IC30", "value": 0.60}, {"measurement": "Ratio of intermediate value, AUH", "setting": "[1]; Genbank NM_001698, drug at IC30", "value": 0.39}, {"measurement": "Ratio of intermediate value, CDO1", "setting": "[1]; Genbank NM_001801, drug at IC30", "value": 0.45}, {"measurement": "Ratio of intermediate value, MGMT", "setting": "[1]; Genbank NM_002412, drug at IC30", "value": 0.48}, {"measurement": "Ratio of intermediate value, NTHL1", "setting": "[1]; Genbank NM_002528, drug at IC30", "value": 0.42}, {"measurement": "Ratio of intermediate value, UNG", "setting": "[1]; Genbank NM_003362, drug at IC30", "value": 0.41}, {"measurement": "Ratio of intermediate value, EEF1E1", "setting": "[1]; Genbank NM_004280, drug at IC30", "value": 0.46}, {"measurement": "Ratio of intermediate value, FEZ1", "setting": "[1]; Genbank NM_005103, drug at IC30", "value": 0.43}, {"measurement": "Ratio of intermediate value, BCAT1", "setting": "[1]; Genbank NM_005504, drug at IC30", "value": 0.12}, {"measurement": "Ratio of intermediate value, BCKDK", "setting": "[1]; Genbank NM_005881, drug at IC30", "value": 0.48}, {"measurement": "Ratio of intermediate value, POLD2", "setting": "[1]; Genbank NM_006230, drug at IC30", "value": 0.29}, {"measurement": "Ratio of intermediate value, FARS2", "setting": "[1]; Genbank NM_006567, drug at IC30", "value": 0.46}, {"measurement": "Ratio of intermediate value, POLG2", "setting": "[1]; Genbank NM_007215, drug at IC30", "value": 0.45}, {"measurement": "Ratio of intermediate value, ABL1", "setting": "[1]; Genbank NM_007313, drug at IC30", "value": 0.49}, {"measurement": "Ratio of intermediate value, LIG3", "setting": "[1]; Genbank NM_013975, drug at IC30", "value": 0.49}, {"measurement": "Ratio of intermediate value, CGI-04", "setting": "[1]; Genbank NM_015936, drug at IC30", "value": 0.47}, {"measurement": "Ratio of intermediate value, MAPT", "setting": "[1]; Genbank NM_016835, drug at IC30", "value": 0.38}, {"measurement": "Ratio of intermediate value, FLJ10514", "setting": "[1]; Genbank NM_018122, drug at IC30", "value": 0.38}, {"measurement": "Ratio of intermediate value, LGP1", "setting": "[1]; Genbank NM_032484, drug at IC30", "value": 0.49}, {"measurement": "Ratio of intermediate value, PSAT1", "setting": "[1]; Genbank NM_058179, drug at IC30", "value": 0.31}, {"measurement": "Ratio of intermediate value, HARS2", "setting": "[1]; Genbank NM_080820, drug at IC30", "value": 0.26}, {"measurement": "Ratio of intermediate value, DBN1", "setting": "[1]; Genbank NM_080881, drug at IC30", "value": 0.44}, {"measurement": "Ratio of intermediate value, ASNS", "setting": "[1]; Genbank NM_133436, drug at IC30", "value": 0.33}, {"measurement": "Ratio of intermediate value, ROBO1", "setting": "[1]; Genbank NM_133631, drug at IC30", "value": 0.39}, {"measurement": "Ratio of intermediate value, TARSL2", "setting": "[1]; Genbank NM_152334, drug at IC30", "value": 0.36}, {"measurement": "Ratio of intermediate value, CNTN4", "setting": "[1]; Genbank NM_175607, drug at IC30", "value": 0.31}, {"measurement": "Ratio of intermediate value, ERCC8", "setting": "[1]; Genbank NM_001007233, drug at IC30", "value": 0.41}, {"measurement": "Ratio of intermediate value, RAD50", "setting": "[1]; Genbank U63139, drug at IC30", "value": 0.36}, {"measurement": "Ratio of intermediate value, VARS2", "setting": "[1]; Genbank X59303, drug at IC30", "value": 0.33}, {"measurement": "Ratio of intermediate value, SR140", "setting": "[1]; Genbank XM_031553, drug at IC30", "value": 0.66}, {"measurement": "Ratio of intermediate value, LOC389173", "setting": "[1]; Genbank XM_371677, drug at IC30", "value": 0.27}, {"measurement": "genes down-regulated (ratio of intermediate value less than 0.666)", "setting": "[1]; JEG-3, drug at IC30, 48 hours", "value": 6.28, "unit": "%"}, {"measurement": "genes up-regulated (ratio of intermediate value more than 1.5)", "setting": "[1]; JEG-3, drug at IC30, 48 hours", "value": 9.5, "unit": "%"}, {"measurement": "number of genes down-regulated", "setting": "[1]; [3]", "value": 1508}, {"measurement": "number of genes up-regulated", "setting": "[1]; [3]", "value": 2149}, {"measurement": "Ratio of intermediate value, gene ATP10B (AB018258, ATPase, Class V, type 10B)", "setting": "[1]; [4]", "value": 4.95}, {"measurement": "Ratio of intermediate value, gene BQ186674 (cDNA clone UI-E-EJ1-ajr-f-10-0-UI, Hypothetical gene supported by AF086204)", "setting": "[1]; [4]", "value": 3.79}, {"measurement": "Ratio of intermediate value, gene BX111592 (Transcribed locus, moderately similar to XP_066443.6 PREDICTED: similar to paraneoplastic antigen like 6A)", "setting": "[1]; [4]", "value": 9.86}, {"measurement": "Ratio of intermediate value, gene CGA (NM_000735, Glycoprotein hormones, alpha polypeptide)", "setting": "[1]; [4]", "value": 8.07}, {"measurement": "Ratio of intermediate value, gene COBLL1 (BX649112, COBL-like 1)", "setting": "[1]; [4]", "value": 4.89}, {"measurement": "Ratio of intermediate value, gene CYP19A1 (AK023571, Cytochrome P450, family 19, subfamily A, polypeptide 1)", "setting": "[1]; [4]", "value": 2.72}, {"measurement": "Ratio of intermediate value, gene FLJ11017 (AK001879, Hypothetical protein FLJ11017)", "setting": "[1]; [4]", "value": 4.69}, {"measurement": "Ratio of intermediate value, gene GLCCI1 (AK126731, Glucocorticoid induced transcript 1)", "setting": "[1]; [4]", "value": 2.84}, {"measurement": "Ratio of intermediate value, gene KIAA0310 (AB002308, KIAA0310)", "setting": "[1]; [4]", "value": 2.29}, {"measurement": "Ratio of intermediate value, gene MGC27016 (AK125877, Hypothetical protein MGC27016)", "setting": "[1]; [4]", "value": 1.52}, {"measurement": "Ratio of intermediate value, gene NCOA3 (NM_181659, Nuclear receptor coactivator 3)", "setting": "[1]; [4]", "value": 2.12}, {"measurement": "Ratio of intermediate value, gene RGS2 (BC042755, Regulator of G-protein signalling 2, 24 kDa)", "setting": "[1]; [4]", "value": 9.24}, {"measurement": "Ratio of intermediate value, gene SIAT7A (BC063830, ST6 (alpha-N-acetyl-neuraminyl-2,3-beta-galactosyl-1,3)-N-acetylgalactosaminide alpha-2,6-sialyltransferase 1)", "setting": "[1]; [4]", "value": 15.01}, {"measurement": "Ratio of intermediate value, gene SIAT8D (NM_005668, ST8 alpha-N-acetyl-neuraminide alpha-2,8-sialyltransferase 4)", "setting": "[1]; [4]", "value": 1.82}, {"measurement": "Ratio of intermediate value, gene SLC7A8 (Y18483, Solute carrier family 7 (cationic amino acid transporter, y+ system), member 8)", "setting": "[1]; [4]", "value": 3.76}, {"measurement": "Ratio of intermediate value, gene SLC40A1 (AK023574, Solute carrier family 40 (iron-regulated transporter), member 1)", "setting": "[1]; [4]", "value": 3.06}, {"measurement": "Ratio of intermediate value, gene TFCP2L4 (BC036890, Grainyhead-like 3 (Drosophila))", "setting": "[1]; [4]", "value": 4.11}, {"measurement": "Ratio of intermediate value, gene TTF2 (AB209845, Transcription termination factor, RNA polymerase II)", "setting": "[1]; [4]", "value": 1.94}, {"measurement": "Ratio of intermediate value, gene TUBB3 (AK122757, Tubulin, beta 3)", "setting": "[1]; [4]", "value": 7.85}, {"measurement": "Ratio of intermediate value, gene TncRNA (AF001893, Trophoblast-derived noncoding RNA)", "setting": "[1]; [4]", "value": 2.11}, {"measurement": "cytotoxicity to JEG-3", "setting": "[2]; FIGS. 1, 2 and 3", "value": "confirmed to have toxicity"}, {"measurement": "IC30 (concentration shows 70% survival rate)", "setting": "[2]; JEG-3, 48 hours, MTT, FIG. 1", "value": 4.570, "unit": "mM"}]}]}
